Measured values: the SangsterLogP compilation

logP	SMILES
3.36	O=C(NCCN1CCN(c2ccc(Cl)cn2)CC1)c1ccc(F)cc1
3.24	COc1cccc(C(=O)NCCN2CCN(c3ccc(Cl)cn3)CC2)c1
3.31	COc1cccc(C(=O)NCCN2CCN(c3ccc(Cl)cc3)CC2)c1
3.02	N#Cc1ccc(N2CCN(CCNC(=O)c3ccc(F)cc3)CC2)cc1
3.7	O=C(NCCN1CCN(c2ccc(Cl)cc2)CC1)c1ccc(F)cc1
2.47	COc1cccc(C(=O)NCCN2CCN(c3ncccc3C#N)CC2)c1
2.33	N#Cc1cccnc1N1CCN(CCNC(=O)c2ccc(F)cc2)CC1
2.83	COc1cccc(C(=O)NCCN2CCN(c3ccc(C)cc3)CC2)c1
2.95	Cc1ccc(N2CCN(CCNC(=O)c3ccc(F)cc3)CC2)cc1
